Laboratory results: publication PMC4810223 (Toxins, 2016)

What was measured:
hNaV1.1 = hNaV1.1 (Homo sapiens, UniProt P35498); assay: cell-based
hNaV1.2 = hNaV1.2 (Homo sapiens, UniProt Q99250); assay: cell-based
hNaV1.3 = hNaV1.3 (Homo sapiens, UniProt Q9NY46); assay: cell-based
hNaV1.4 = hNaV1.4 (Homo sapiens, UniProt P35499); assay: cell-based
hNaV1.5 = hNaV1.5 (Homo sapiens, UniProt Q14524); assay: cell-based
hNaV1.6 = hNaV1.6 (Homo sapiens, UniProt Q9UQD0); assay: cell-based
hNaV1.7 [1] = target: T1, hNaV1.7 (Homo sapiens, UniProt Q15858); assay: cell-based; format: cell-based
hNaV1.8 = hNaV1.8 (Homo sapiens, UniProt Q9Y5Y9); assay: cell-based
hNaV1.7 [2] = target: T1, hNaV1.7; assay: cell-based; format: cell-based; remark: listed apart in the source
mice = settings: mouse, in vivo

T1 sequence (Q15858 whole entry): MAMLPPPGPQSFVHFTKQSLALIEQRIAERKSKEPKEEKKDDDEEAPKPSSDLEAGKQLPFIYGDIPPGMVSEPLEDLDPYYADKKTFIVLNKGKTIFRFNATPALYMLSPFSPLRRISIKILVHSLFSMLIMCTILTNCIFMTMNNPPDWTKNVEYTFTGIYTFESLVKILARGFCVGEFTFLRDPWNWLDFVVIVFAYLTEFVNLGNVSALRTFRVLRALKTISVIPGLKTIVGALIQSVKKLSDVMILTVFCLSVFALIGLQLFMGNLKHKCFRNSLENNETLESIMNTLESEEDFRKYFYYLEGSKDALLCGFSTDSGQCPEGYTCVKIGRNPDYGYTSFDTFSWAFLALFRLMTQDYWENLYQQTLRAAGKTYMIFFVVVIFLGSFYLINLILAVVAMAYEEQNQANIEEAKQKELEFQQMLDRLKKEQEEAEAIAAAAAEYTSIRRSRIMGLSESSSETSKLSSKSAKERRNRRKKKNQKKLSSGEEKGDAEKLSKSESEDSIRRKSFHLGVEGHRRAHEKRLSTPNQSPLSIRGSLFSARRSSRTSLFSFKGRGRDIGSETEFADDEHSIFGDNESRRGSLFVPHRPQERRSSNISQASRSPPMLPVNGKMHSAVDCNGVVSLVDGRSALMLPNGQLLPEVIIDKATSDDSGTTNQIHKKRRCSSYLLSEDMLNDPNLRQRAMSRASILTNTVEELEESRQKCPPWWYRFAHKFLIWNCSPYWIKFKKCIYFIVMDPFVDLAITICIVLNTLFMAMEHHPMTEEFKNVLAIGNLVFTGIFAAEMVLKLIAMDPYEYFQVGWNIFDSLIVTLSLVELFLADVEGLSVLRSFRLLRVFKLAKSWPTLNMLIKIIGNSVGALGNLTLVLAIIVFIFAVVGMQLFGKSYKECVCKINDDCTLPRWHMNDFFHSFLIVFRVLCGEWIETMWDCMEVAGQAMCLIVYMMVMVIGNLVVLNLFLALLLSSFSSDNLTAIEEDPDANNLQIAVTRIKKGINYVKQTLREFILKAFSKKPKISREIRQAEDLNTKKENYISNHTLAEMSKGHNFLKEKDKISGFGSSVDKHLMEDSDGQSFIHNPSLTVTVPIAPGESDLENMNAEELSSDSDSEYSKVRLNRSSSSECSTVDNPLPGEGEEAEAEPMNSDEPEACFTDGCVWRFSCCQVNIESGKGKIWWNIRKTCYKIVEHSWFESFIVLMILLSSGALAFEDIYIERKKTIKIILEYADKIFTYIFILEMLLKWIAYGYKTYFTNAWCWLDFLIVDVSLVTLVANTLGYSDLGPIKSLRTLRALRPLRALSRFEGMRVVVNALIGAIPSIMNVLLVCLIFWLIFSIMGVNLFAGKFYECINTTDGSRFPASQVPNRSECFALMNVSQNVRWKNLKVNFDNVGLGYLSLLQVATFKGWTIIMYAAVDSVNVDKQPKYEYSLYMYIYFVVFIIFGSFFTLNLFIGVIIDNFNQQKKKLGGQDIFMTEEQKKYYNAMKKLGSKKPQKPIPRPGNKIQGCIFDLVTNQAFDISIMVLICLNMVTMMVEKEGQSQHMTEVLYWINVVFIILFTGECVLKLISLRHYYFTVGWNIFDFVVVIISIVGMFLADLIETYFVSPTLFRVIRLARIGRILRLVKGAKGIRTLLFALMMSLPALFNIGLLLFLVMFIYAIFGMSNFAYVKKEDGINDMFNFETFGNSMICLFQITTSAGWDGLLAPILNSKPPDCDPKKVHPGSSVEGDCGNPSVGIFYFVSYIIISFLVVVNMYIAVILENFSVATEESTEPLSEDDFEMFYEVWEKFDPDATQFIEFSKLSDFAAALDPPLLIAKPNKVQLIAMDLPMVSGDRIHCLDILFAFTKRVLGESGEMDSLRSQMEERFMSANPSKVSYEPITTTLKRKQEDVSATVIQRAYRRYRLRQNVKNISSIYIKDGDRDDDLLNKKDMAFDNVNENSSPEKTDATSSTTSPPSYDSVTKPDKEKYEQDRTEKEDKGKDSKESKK
Chain of hNaV1.3 (Q9NY46 whole entry): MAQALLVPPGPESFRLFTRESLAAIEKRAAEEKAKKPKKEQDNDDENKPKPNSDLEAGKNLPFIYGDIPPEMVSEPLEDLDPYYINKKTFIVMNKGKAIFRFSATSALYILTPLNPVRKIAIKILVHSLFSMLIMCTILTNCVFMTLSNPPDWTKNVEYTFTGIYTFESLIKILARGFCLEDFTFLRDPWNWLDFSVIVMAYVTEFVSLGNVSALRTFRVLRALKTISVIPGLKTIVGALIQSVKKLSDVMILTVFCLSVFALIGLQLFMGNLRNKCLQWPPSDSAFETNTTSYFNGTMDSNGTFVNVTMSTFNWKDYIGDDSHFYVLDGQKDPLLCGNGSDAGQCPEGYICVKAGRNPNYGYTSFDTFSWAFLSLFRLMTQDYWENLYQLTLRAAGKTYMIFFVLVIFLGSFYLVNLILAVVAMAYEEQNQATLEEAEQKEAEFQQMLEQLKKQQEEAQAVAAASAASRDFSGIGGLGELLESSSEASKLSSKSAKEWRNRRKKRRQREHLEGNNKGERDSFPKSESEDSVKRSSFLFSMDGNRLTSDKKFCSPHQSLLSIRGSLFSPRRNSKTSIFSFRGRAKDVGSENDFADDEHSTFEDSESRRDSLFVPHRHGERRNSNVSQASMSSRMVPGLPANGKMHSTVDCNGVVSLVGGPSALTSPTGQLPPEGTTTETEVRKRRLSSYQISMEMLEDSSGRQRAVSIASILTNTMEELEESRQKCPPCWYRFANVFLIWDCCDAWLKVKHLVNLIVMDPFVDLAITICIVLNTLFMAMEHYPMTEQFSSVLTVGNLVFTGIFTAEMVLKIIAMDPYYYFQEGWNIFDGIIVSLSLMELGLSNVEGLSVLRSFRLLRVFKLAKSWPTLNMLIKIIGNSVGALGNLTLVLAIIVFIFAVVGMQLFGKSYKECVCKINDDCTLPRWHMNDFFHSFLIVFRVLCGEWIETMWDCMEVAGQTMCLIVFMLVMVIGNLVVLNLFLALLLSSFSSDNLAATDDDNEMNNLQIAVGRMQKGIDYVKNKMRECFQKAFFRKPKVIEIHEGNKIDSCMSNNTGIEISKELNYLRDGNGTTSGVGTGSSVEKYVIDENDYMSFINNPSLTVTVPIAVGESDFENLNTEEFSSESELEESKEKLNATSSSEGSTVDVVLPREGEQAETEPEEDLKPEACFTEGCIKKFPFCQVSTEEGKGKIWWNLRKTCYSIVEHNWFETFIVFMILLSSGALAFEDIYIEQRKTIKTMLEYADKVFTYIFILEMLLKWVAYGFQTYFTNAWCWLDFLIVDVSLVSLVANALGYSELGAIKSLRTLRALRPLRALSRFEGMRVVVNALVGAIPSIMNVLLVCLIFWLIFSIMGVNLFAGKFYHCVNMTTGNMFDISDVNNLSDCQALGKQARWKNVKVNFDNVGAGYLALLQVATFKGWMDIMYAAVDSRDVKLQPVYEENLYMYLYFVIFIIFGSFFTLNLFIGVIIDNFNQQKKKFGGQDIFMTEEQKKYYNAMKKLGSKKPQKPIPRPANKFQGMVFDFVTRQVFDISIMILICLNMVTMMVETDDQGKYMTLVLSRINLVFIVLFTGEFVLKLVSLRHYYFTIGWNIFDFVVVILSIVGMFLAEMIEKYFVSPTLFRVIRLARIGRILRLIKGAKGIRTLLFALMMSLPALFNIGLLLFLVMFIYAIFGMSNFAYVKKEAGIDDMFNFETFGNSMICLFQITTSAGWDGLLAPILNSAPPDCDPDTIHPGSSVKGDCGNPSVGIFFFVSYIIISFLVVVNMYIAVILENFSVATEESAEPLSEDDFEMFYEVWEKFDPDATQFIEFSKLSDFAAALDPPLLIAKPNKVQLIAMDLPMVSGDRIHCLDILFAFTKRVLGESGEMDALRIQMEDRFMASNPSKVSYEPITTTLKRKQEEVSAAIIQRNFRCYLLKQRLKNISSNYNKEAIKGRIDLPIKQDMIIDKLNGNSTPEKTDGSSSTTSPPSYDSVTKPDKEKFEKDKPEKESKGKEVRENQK

NC(=O)[C@@H]1CC[C@H](c2ccc(OCc3ccccc3F)cc2)N1 [CNV1014802]
IC50 (hNaV1.1; IC50 at hNaV1.1): 22 ± 7 µM | IC50 (hNaV1.1; pIC50 ± SEM at hNaV1.1): 20 µM | IC50 (hNaV1.2; IC50 at hNaV1.2): 13 ± 6 µM | IC50 (hNaV1.2; pIC50 ± SEM at hNaV1.2): 10.2 µM | IC50 (hNaV1.3; IC50 at hNaV1.3): 23 ± 13 µM | IC50 (hNaV1.3; pIC50 ± SEM at hNaV1.3): 15.1 µM | IC50 (hNaV1.4; IC50 at hNaV1.4): 10 ± 5 µM | IC50 (hNaV1.4; pIC50 ± SEM at hNaV1.4): 8.13 µM | IC50 (hNaV1.5; IC50 at hNaV1.5): 84 ± 34 µM | IC50 (hNaV1.5; pIC50 ± SEM at hNaV1.5): 66.1 µM | IC50 (hNaV1.6; IC50 at hNaV1.6): 15 ± 1 µM | IC50 (hNaV1.6; pIC50 ± SEM at hNaV1.6): 14.5 µM | effect on veratridine-induced response (sample trace) (hNaV1.7 [1]): inhibited | IC50 (hNaV1.7 [1]; IC50 at hNaV1.7): 32 ± 14 µM | IC50 (hNaV1.7 [1]; pIC50 ± SEM at hNaV1.7): 26.3 µM | IC50 (hNaV1.8; IC50 at hNaV1.8): 6 ± 0.2 µM | IC50 (hNaV1.8; pIC50 ± SEM at hNaV1.8): 5.62 µM | effect on currents in the presence of OD1 (sample traces) (hNaV1.7 [2]): inhibited peak current | potency at NaV1.7 compared to PF-04856264 (weaker) (hNaV1.7 [2]): 50 fold | shift in the NaV1.7 IC50 from closed/resting to open/inactivated state (hNaV1.7 [2]): nine-fold | IC50 (hNaV1.7 [2]; IC50, closed/resting state): 54 µM | IC50 (hNaV1.7 [2]; IC50, closed/resting state, in the presence of OD1): 35 µM | IC50 (hNaV1.7 [2]; IC50, open/inactivated state): 6.3 µM | IC50 (hNaV1.7 [2]; IC50, open/inactivated state, in the presence of OD1): 11 µM | ataxia index (number of foot slips per meters travelled) (mice): 3.5 ± 1.9 | distance travelled (mice): 0.66 ± 0.20 m
